Data on eleven molecules can be found in PMC10057332, “Anticancer and Targeting Activity of Phytopharmaceutical Structural Analogs of a Natural Peptide from Trichoderma longibrachiatum and Related Peptide-Decorated Gold Nanoparticles” (International Journal of Molecular Sciences, 2023).

Where “and” joins values, the source holds several entries; their conditions need not be identical. Equal values may be shown once. Residues, ends and D or L forms follow the SMILES beside them. Bounds are passed on as bounds.

For data set [1] the following is noted: MCF-10A cells, 1 h at 37 °C, CD at 25 °C.
Description: The CD profile of Api8-NH2 and Leu4-NH2 was also acquired in the presence of cells (cell line MCF-10A) (Figure 1). This study also provided information on the stability of the peptides in the biological environment [63].
Figure 1 CD profiles of Leu4-NH2 and Api8-NH2 acquired at 25 °C in the presence of MCF-10A epithelial breast cells. (Peptide concentrations: Api8, 5 × 10^−5 M; Leu4, 1 × 10^−5 M).
The CD spectra were obtained on a Jasco (Tokyo, Japan) J-1500 spectropolarimeter. Fused quartz cells (Hellma, Mühlheim, Germany) of 1 mm path length were used. The values are expressed in terms of [θ]T, total molar ellipticity (deg∙cm^2∙dmol^−1). […] The CD measurements in cells were performed as follows: 1 × 10^6 cells were harvested, washed twice in PBS and incubated in the same buffer with peptides (concentrations: Api8, 5 × 10^−5 M; Leu4, 1 × 10^−5 M) for 1 h at 37°C in a rotating mixer before recording the CD spectra.
Another data set relates to MDA-MB-231 cells. The data set can be described thus: MTS cytotoxicity in MDA-MB-231 triple negative breast cancer cells. The data set is classed as cell-based, human. The settings on record: for IC50: cells exposed to peptaibols for 24 h, MTS assay; for killing activity in cancer cells: 10 µM peptide. The protocol:
(§1) Cells were incubated with increasing concentrations of peptides for 24 h before assessing cell viability with MTS assay in order to create dose/response curves (Figure 4) and calculate the half maximal inhibitory concentration (IC50) values for each peptaibol (Table 3). For convenience, peptides have been subdivided based on their C-terminal substituents, i.e., leucinol (lol) or amide (-NH2).
(§2) The cytotoxicity of peptides and free Api8- and Leu4-decorated GNPs was assessed with the MTS assay (CellTiter 96® AQueous One Solution Cell Proliferation Assay, Promega, Milan, Italy) in cancer MDA-MB-231 and normal MCF-10A cells exposed to increasing concentrations of peptaibols/GNPs for 24 h. Cells (8 × 10^3 cells/well for MDA-MB-231, 6 × 10^3 cells/well for MCF-10A) were seeded in 96-well plates, and after 24 h the medium was replaced with a fresh one containing peptaibols/GNPs. For MTS assay, the medium was replaced with 100 μL of serum-free medium and 20 μL of the CellTiter 96® reagent. After 60–90 min, the absorbance at 492 nm was measured with a Multiskan Go (Thermo Fischer Scientific, Carlsbad, CA, USA) plate reader and cell viability was expressed as a function of absorbance relative to that of control cells (considered as 100% viability). IC50 values for each peptaibol treatment were extrapolated from the relative dose–response curves obtained with the software GraphPad Prism 9.5.

For a further data set, the system named is MCF-10A cells. The data set can be described thus: MTS cytotoxicity in normal epithelial breast MCF-10A cells. The data set is classed as cell-based, human. The settings on record: for IC50: cells exposed to peptaibols for 24 h, MTS assay; for effect on viability of MCF-10A cells: peptide concentration range tested, 24 h, MTS. On the procedure: as §1, §2
(In general: Tetrazolium assays rely on reduction of a dye to a coloured formazan, in cell work by metabolically active cells.)

The subject of data set [2] is MDA-MB-231 with respect to MCF-10A cells. The data set can be described thus: Flow cytometry uptake of FITC-conjugated peptaibols. The data set is classed as cell-based, human. The settings on record: highest concentration tested, 24 h incubation. On the procedure:
For this study, we decided to focus our attention on the unique, noncytotoxic, yet membrane-active peptides Leu4-NH2 and Api8-NH2 to study them as potential cancer-targeting agents. […] As reference, K6-NH2 internalization was measured as well, since for this specific peptide, previous studies already reported an increased uptake in tumor cells (HDLM-2 and A2780 tumor cell lines) with respect to normal healthy cells, such as peripheral blood mononuclear cells (PBMCs) or fibroblasts.
Figure 5 Flow cytometry measurements of FITC-conjugated peptaibols in MDA-MB-231 (a) and MCF-10 (b) cells after a 24 h incubation period.
Flow cytometry and peptides conjugated with FITC, namely Api8-FITC and Leu4-FITC, were used to assess the capacity of peptaibols to be internalized by breast cancer cells, Briefly, 8 × 10^4 MDA-MB-231 and MCF-10A cells/well were grown in 24-well plates for 24 h and then incubated for 24 h with 5 μM peptaibols. […] Those washings both before cell detachment from plates and after cell recovery and centrifugation removed any peptides not strongly associated with cell plasma membranes, assuring FITC signals measured by flow cytometry were referred exclusively to internalized peptides. Cells were centrifuged and resuspended in Versene before measuring FITC fluorescence using a BD Fortessa^TM X-20 flow cytometer (Becton Dickinson, San Jose, CA, USA). […]
(In general: Flow cytometry measures light scatter and fluorescence of single cells or particles in a stream.)

As a reminder, the IC50 is the point on the concentration scale where inhibition reaches its midpoint. High values mean weaker potency, low ones greater potency. On to `CCCCCCCC(=O)NC(C)(C)C(=O)NCC(=O)N[C@@H](CC(C)C)C(=O)NC(C)(C)C(=O)NCC(=O)NCC(=O)N[C@@H](CC(C)C)C(=O)NC1(C(=O)NCC(=O)N[C@H](C(=O)N[C@@H](CC(C)C)C(N)=O)[C@@H](C)CC)CCNCC1` [Api8-NH2, Oct-Aib^1-Gly-Leu-Aib^4-Gly-Gly-Leu-Api^8-Gly-Ile-Leu^11-NH2] (HELM PEPTIDE1{[CCCCCCCC(=O)[*:2]].[Aib].G.L.[Aib].G.G.L.[O=C(C1(N[*:1])CCNCC1)[*:2]].G.I.L.[am]}$$$$V2.0), for which the “stability in the presence of cells (CD)” value in data set [1] was “stability of the peptides in the presence of cells”. The half-inhibitory concentration (IC50) in the data set on MDA-MB-231 cells and with MCF-10A cells was above 20 µM in each case. For the same molecule, the “effect on viability of MDA-MB-231 cells” value in the data set with MDA-MB-231 cells (peptide concentration range tested, 24 h, MTS) is on record as “did not significantly affect the viability”. Further, the “effect on viability of MCF-10A cells” value in the data set on MCF-10A cells was “did not significantly affect the viability”.

As to `CCCCCCCC(=O)NC(C)(C)C(=O)N[C@@H](CCCCN)C(=O)N[C@@H](CC(C)C)C(=O)NC(C)(C)C(=O)NCC(=O)NCC(=O)N[C@@H](CC(C)C)C(=O)NC(C)(C)C(=O)NCC(=O)N[C@H](C(=O)N[C@@H](CC(C)C)C(N)=O)[C@@H](C)CC` [K2-NH2, Oct-Aib^1-Lys-Leu-Aib^4-Gly-Gly-Leu-Aib^8-Gly-Ile-Leu^11-NH2] (HELM PEPTIDE1{[CCCCCCCC(=O)[*:2]].[Aib].K.L.[Aib].G.G.L.[Aib].G.I.L.[am]}$$$$V2.0), the “killing activity in cancer cells” value with MDA-MB-231 cells (24 h, MTS) is recorded as “about 90%”. In addition, the values for the IC50 in the data set on MDA-MB-231 cells and in the data set on MCF-10A cells were 9 µM and 17 µM, respectively.

For the molecule `CCCCCCCC(=O)NC(C)(C)C(=O)N[C@@H](CCCCN)C(=O)N[C@@H](CC(C)C)C(=O)NC(C)(C)C(=O)N[C@@H](CCCCN)C(=O)NCC(=O)N[C@@H](CC(C)C)C(=O)NC(C)(C)C(=O)NCC(=O)N[C@H](C(=O)N[C@H](CO)CC(C)C)[C@@H](C)CC` [K25-Lol, Oct-Aib^1-Lys-Leu-Aib^4-Lys-Gly-Leu-Aib^8-Gly-Ile-Lol^11] (HELM PEPTIDE1{[CCCCCCCC(=O)[*:2]].[Aib].K.L.[Aib].K.G.L.[Aib].G.I.[CC(C)C[C@@H](CO)N[*:1]]}$$$$V2.0), in the data set with MDA-MB-231 cells (24 h, MTS), the “killing activity in cancer cells” value is listed as around 60%. For the same molecule, the IC50 is 9 µM with MDA-MB-231 cells and 16 µM in the data set with MCF-10A cells.

Take `CCCCCCCC(=O)NC(C)(C)C(=O)NCC(=O)N[C@@H](CC(C)C)C(=O)NC(C)(C)C(=O)N[C@@H](CCCCN)C(=O)N[C@@H](CCCCN)C(=O)N[C@@H](CC(C)C)C(=O)NC(C)(C)C(=O)NCC(=O)N[C@H](C(=O)N[C@H](CO)CC(C)C)[C@@H](C)CC` [K56-Lol, Oct-Aib^1-Gly-Leu-Aib^4-Lys-Lys-Leu-Aib^8-Gly-Ile-Lol^11]: the “killing activity in cancer cells” value in the data set on MDA-MB-231 cells (24 h, MTS) is on record as around 20%. In addition, the half-inhibitory concentration (IC50) was 12 µM in the data set on MDA-MB-231 cells and 18 µM with MCF-10A cells.

In the case of `CCCCCCCC(=O)NC(C)(C)C(=O)N[C@@H](CCCCN)C(=O)N[C@@H](CC(C)C)C(=O)NC(C)(C)C(=O)N[C@@H](CCCCN)C(=O)NCC(=O)N[C@@H](CC(C)C)C(=O)NC(C)(C)C(=O)N[C@@H](CCCCN)C(=O)N[C@H](C(=O)N[C@H](CO)CC(C)C)[C@@H](C)CC` [K259-Lol, Oct-Aib^1-Lys-Leu-Aib^4-Lys-Gly-Leu-Aib^8-Lys-Ile-Lol^11] (HELM PEPTIDE1{[CCCCCCCC(=O)[*:2]].[Aib].K.L.[Aib].K.G.L.[Aib].K.I.[CC(C)C[C@@H](CO)N[*:1]]}$$$$V2.0), in the data set on MDA-MB-231 cells (24 h, MTS), the “killing activity in cancer cells” value is listed as around 60%. The IC50 was 10 µM with MDA-MB-231 cells and 15 µM in the data set with MCF-10A cells.

Turning to `CCCCCCCC(=O)NC(C)(C)C(=O)N[C@@H](CCCCN)C(=O)N[C@@H](CC(C)C)C(=O)NC(C)(C)C(=O)N[C@@H](CCCCN)C(=O)NCC(=O)N[C@@H](CC(C)C)C(=O)NC(C)(C)C(=O)N[C@@H](CCCCN)C(=O)N[C@H](C(=O)N[C@@H](CC(C)C)C(N)=O)[C@@H](C)CC` [K259-NH2, Oct-Aib^1-Lys-Leu-Aib^4-Lys-Gly-Leu-Aib^8-Lys-Ile-Leu^11-NH2] (HELM PEPTIDE1{[CCCCCCCC(=O)[*:2]].[Aib].K.L.[Aib].K.G.L.[Aib].K.I.L.[am]}$$$$V2.0), the IC50 was ~13 µM and 13 µM in the data set with MDA-MB-231 cells; 17 µM in the data set on MCF-10A cells.

As to `CCCCCCCC(=O)NC(C)(C)C(=O)N[C@@H](CCCCN)C(=O)N[C@@H](CC(C)C)C(=O)NC(C)(C)C(=O)N[C@@H](CCCCN)C(=O)N[C@@H](CCCCN)C(=O)N[C@@H](CC(C)C)C(=O)NC(C)(C)C(=O)N[C@@H](CCCCN)C(=O)N[C@H](C(=O)N[C@H](CO)CC(C)C)[C@@H](C)CC` [K2569-Lol, Oct-Aib^1-Lys-Leu-Aib^4-Lys-Lys-Leu-Aib^8-Lys-Ile-Lol^11] (HELM PEPTIDE1{[CCCCCCCC(=O)[*:2]].[Aib].K.L.[Aib].K.K.L.[Aib].K.I.[CC(C)C[C@@H](CO)N[*:1]]}$$$$V2.0), the “killing activity in cancer cells” value in the data set with MDA-MB-231 cells (24 h, MTS) is given as around 30%. Besides, the IC50 came out at 12 µM in the data set with MDA-MB-231 cells and 14 µM in the data set with MCF-10A cells.

On to `CCCCCCCC(=O)NC(C)(C)C(=O)NCC(=O)N[C@@H](CC(C)C)C(=O)N[C@@H](CC(C)C)C(=O)NCC(=O)NCC(=O)N[C@@H](CC(C)C)C(=O)NC(C)(C)C(=O)NCC(=O)N[C@H](C(=O)N[C@H](CO)CC(C)C)[C@@H](C)CC` [Leu4-Lol, reference compound] (HELM PEPTIDE1{[CCCCCCCC(=O)[*:2]].[Aib].G.L.L.G.G.L.[Aib].G.I.[CC(C)C[C@@H](CO)N[*:1]]}$$$$V2.0), for which the half-inhibitory concentration (IC50) in the data set on MDA-MB-231 cells and in the data set with MCF-10A cells was above 20 µM each time. The “effect on viability of MCF-10A cells” value in the data set on MCF-10A cells is given as “did not significantly affect the viability”.

As to `CCCCCCCC(=O)NC(C)(C)C(=O)NCC(=O)N[C@@H](CC(C)C)C(=O)N[C@@H](CC(C)C)C(=O)NCC(=O)NCC(=O)N[C@@H](CC(C)C)C(=O)NC(C)(C)C(=O)NCC(=O)N[C@H](C(=O)N[C@@H](CC(C)C)C(N)=O)[C@@H](C)CC` [Leu4-NH2, Oct-Aib^1-Gly-Leu-Leu^4-Gly-Gly-Leu-Aib^8-Gly-Ile-Leu^11-NH2] (HELM PEPTIDE1{[CCCCCCCC(=O)[*:2]].[Aib].G.L.L.G.G.L.[Aib].G.I.L.[am]}$$$$V2.0), the “stability in the presence of cells (CD)” value in data set [1] was “stability of the peptides in the presence of cells”. This molecule came in with an IC50 in the data set with MDA-MB-231 cells above 20 µM. For the same molecule, in the data set with MCF-10A cells, the concentration for half-maximal inhibition (IC50) is above 20 µM and the “effect on viability of MCF-10A cells” value is “did not significantly affect the viability”.

Turning to “Oct-Aib^1-Gly-Leu-Aib^4-Gly-Gly-Leu-Api^8-Gly-Ile-Leu^11-NH-(CH2)2-NH-FITC [Api8-FITC]”, in data set [2], the “internalization in MDA-MB-231 with respect to MCF-10A cells” value is listed as around 3 folds.

In the case of “Oct-Aib^1-Gly-Leu-Leu^4-Gly-Gly-Leu-Aib^8-Gly-Ile-Leu^11-NH-(CH2)2-NH-FITC [Leu4-FITC]”, the “internalization in MDA-MB-231 with respect to MCF-10A cells” value in data set [2] is “about 5 folds”.
